*1 amine or outer side, *2 acyl side, *3 side chain or, on linkers, in order; H or OH if unused. Where a SMILES comes first, the peptide text is derived from it. Bridges are numbered along the chain shown (N, C = ends). Roman numbers before positions name the chains, in order. Where no end group is shown, it is not given here. [ ]: non-standard residue; d: D form. CO(CH2)2(OCH2CH2)17CO = O=C(CCOCCOCCOCCOCCOCCOCCOCCOCCOCCOCCOCCOCCOCCOCCOCCOCCOCCC(=O)[*:2])[*:1]; X1 = O=C(OCCOCCOCCOCCOCCOCCOCCOCCOCCOCCOCCOCCOC(=O)[*:2])[*:1]; 3Pal = N[C@@H](Cc1cccnc1)C(=O)O; X2 = O=C(CCOCCC(=O)[*:2])[*:1]; PEG2 = NCCOCCOCCC(=O)O
How the values were obtained:
[1] = molecular target: T1, TrkB (CellSensor TrkB-NFAT-bla CHO-K1 Cell) (Homo sapiens, UniProt Q16620); assay: pERK1/2 AlphaLISA assay (phosphorylation of ERK) for TrkB agonist activity; assay type: cell-based; settings: class = peptide concentration giving 50% or more activity; BDNF maximum signal = 100%, no stimulation = 0%; 15 minutes of stimulation
T1 construct: host or cells: CHO-K1 (CellSensor TrkB-NFAT-bla CHO-K1)
T1 sequence (Q16620 32-822): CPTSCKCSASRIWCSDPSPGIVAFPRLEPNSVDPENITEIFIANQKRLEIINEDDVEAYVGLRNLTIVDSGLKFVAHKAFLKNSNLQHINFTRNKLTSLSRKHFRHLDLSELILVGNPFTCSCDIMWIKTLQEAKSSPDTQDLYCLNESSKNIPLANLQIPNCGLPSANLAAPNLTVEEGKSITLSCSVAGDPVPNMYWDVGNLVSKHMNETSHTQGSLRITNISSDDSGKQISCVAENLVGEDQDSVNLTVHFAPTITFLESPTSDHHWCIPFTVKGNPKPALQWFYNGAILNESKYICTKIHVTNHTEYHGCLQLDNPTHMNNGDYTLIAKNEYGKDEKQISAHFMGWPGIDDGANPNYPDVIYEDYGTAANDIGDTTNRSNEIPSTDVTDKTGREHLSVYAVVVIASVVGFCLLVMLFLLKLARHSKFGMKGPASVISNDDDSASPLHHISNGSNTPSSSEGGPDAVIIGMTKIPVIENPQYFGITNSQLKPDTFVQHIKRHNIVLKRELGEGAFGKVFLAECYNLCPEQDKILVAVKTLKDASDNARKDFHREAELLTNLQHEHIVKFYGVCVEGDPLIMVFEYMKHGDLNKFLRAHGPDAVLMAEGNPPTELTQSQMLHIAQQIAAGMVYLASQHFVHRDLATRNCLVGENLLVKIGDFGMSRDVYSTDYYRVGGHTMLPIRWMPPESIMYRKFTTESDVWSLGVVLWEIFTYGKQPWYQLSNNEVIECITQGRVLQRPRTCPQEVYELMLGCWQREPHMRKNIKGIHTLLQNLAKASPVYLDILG
In short: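 TrkB-NFAT-bla CHO-K1 cells were starved 4 h in 0.1% BSA medium and then stimulated 15 min with peptide or BDNF; p-ERK1/2 (Thr202/Tyr204) in the lysate was read by AlphaLISA SureFire. Activity % was scaled to the BDNF maximum (100%) and no stimulation (0%); A = ≥50% at 1 nM, B = ≥50% at 10 nM; curves were 8 points, 4-fold dilutions from 100 nM.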

[2] = molecular target: T1, TrkB (CellSensor TrkB-NFAT-bla CHO-K1 Cell); assay: NFAT transcriptional reporter assay for TrkB agonist activity; assay type: cell-based; settings: class = peptide concentration giving 50% or more activity; BDNF maximum signal = 100%, no stimulation = 0%; 5 hours culture
In short: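 CHO-K1 TrkB-NFAT-bla cells, 12,500 per well, treated overnight-seeded with peptide or BDNF for 5 h, then CCF4-AM substrate 2 h in the dark; 460/535 nm emission ratio. Activity scaled to maximal BDNF signal (100%) and unstimulated (0%); grades A/B/C mean ≥50% activity at 1, 10 or 100 nM.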

[3] = molecular target: TrkB (Homo sapiens, UniProt Q16620); assay: PathHunter eXpress TrkB Functional Assay (phosphorylation of TrkB); assay type: cell-based; settings: maximum signal induced by BDNF = 100%; stimulation for 3 hours
TrkB, sequence (Q16620 32-822): as above
In short: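 PathHunter TrkB cells, cultured 48 h, were stimulated 3 h with peptide or BDNF, then detection reagent added for 60 min at room temperature; luminescence read. Activity (%) scaled from unstimulated (0%) to maximal BDNF signal (100%); peptides tested over 0.006104-100 nM, 0.032-100 nM or 0.01-10 nM ranges.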

[4] = molecular target: TrkB of the cells of the PathHunter eXpress TrkB Functional Assay kit (DiscoverX) (UniProt Q16620 32-822, limits assumed); assay: cell-based or functional assay
TrkB of the cells of the PathHunter eXpress TrkB Functional Assay kit (DiscoverX), sequence (Q16620 32-822 limits assumed): as the sequence (Q16620 32-822) above

[5] = molecular target: Recombinant Human TrkB Fc Chimera Protein (R&D Systems) (human) (UniProt Q16620); assay: SPR (Biacore T200), TrkB-Fc captured on anti-human IgG (Fc) antibody, peptide complex as analyte, single cycle kinetics
Recombinant Human TrkB Fc Chimera Protein (R&D Systems) (human), sequence (Q16620 32-430, change not shown): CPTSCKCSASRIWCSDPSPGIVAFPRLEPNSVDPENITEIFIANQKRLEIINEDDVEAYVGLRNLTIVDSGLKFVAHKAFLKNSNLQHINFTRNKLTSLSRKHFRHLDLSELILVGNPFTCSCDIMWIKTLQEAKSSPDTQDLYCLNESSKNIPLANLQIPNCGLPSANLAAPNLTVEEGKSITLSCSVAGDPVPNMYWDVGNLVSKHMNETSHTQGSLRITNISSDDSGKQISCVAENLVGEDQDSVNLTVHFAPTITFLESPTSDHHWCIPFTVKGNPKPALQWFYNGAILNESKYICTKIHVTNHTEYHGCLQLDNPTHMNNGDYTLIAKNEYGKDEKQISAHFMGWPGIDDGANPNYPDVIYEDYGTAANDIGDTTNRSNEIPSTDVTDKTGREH

Row | Molecule | pERK (aLISA) Assay Results [1] | NFAT Assay Results [2] | Emax [3] [%] | PathHunter EC50 [4] [nM] | PathHunter Emax (BDNF maximum = 100%) [4] [%] | koff [5] [s⁻¹]
1 | CC(C)[C@@H]1NC(=O)[C@H](Cc2cccnc2)NC(=O)[C@H](CCC(=O)O)NC(=O)[C@H](CO)NC(=O)[C@H](Cc2ccc(O)cc2)NC(=O)[C@H]([C@@H](C)O)NC(=O)[C@@H]2CCCN2C(=O)[C@H](Cc2c[nH]c3ccccc23)NC(=O)[C@H](Cc2cccnc2)NC(=O)[C@H](Cc2ccc(O)cc2)NC(=O)[C@@H]2CCCN2C(=O)[C@H](CO)NC(=O)[C@H](Cc2ccccc2)NC(=O)CSC[C@@H](C(=O)NCC(=O)N[C@@H](CCCCNC(=O)CCOCCOCCOCCOCCOCCOCCOCCOCCOCCOCCOCCOCCOCCOCCOCCOCCOCCC(=O)NCCCC[C@H](NC(=O)CNC(=O)[C@@H]2CSCC(=O)N[C@@H](Cc3ccccc3)C(=O)N[C@@H](CO)C(=O)N3CCC[C@H]3C(=O)N[C@@H](Cc3ccc(O)cc3)C(=O)N[C@@H](Cc3cccnc3)C(=O)N[C@@H](Cc3c[nH]c4ccccc34)C(=O)N3CCC[C@H]3C(=O)N[C@@H]([C@@H](C)O)C(=O)N[C@@H](Cc3ccc(O)cc3)C(=O)N[C@@H](CO)C(=O)N[C@@H](CCC(=O)O)C(=O)N[C@@H](Cc3cccnc3)C(=O)N[C@@H](C(C)C)C(=O)N[C@@H](CCC(=O)O)C(=O)N2)C(N)=O)C(N)=O)NC(=O)[C@H](CCC(=O)O)NC1=O [compound 49] (I: {CH2CO}-FSPY[3Pal]WPTYSE[3Pal]VECGK-NH2 / II: {CH2CO}-FSPY[3Pal]WPTYSE[3Pal]VECGK-NH2; linker I:17-II:17 via CO(CH2)2(OCH2CH2)17CO; thioether I:N-I:15, II:N-II:15) | A (The peptide with 50% or more activity when 1 nM of the peptide was added was evaluated as A) | A (The peptide with 50% or more activity when 1 nM of the peptide was added was evaluated as A) | 107 |  |  | 
2 | CC(C)[C@@H]1NC(=O)[C@H](Cc2cccnc2)NC(=O)[C@H](CCC(=O)O)NC(=O)[C@H](CO)NC(=O)[C@H](Cc2ccc(O)cc2)NC(=O)[C@H]([C@@H](C)O)NC(=O)[C@@H]2CCCN2C(=O)[C@H](Cc2c[nH]c3ccccc23)NC(=O)[C@H](Cc2cccnc2)NC(=O)[C@H](Cc2ccc(O)cc2)NC(=O)[C@@H]2CCCN2C(=O)[C@H](CO)NC(=O)[C@H](Cc2ccccc2)NC(=O)CSC[C@@H](C(=O)NCC(=O)NCCOCCOCCC(=O)N[C@@H](CCCCNC(=O)CCOCCC(=O)NCCCC[C@H](NC(=O)CCOCCOCCNC(=O)CNC(=O)[C@@H]2CSCC(=O)N[C@@H](Cc3ccccc3)C(=O)N[C@@H](CO)C(=O)N3CCC[C@H]3C(=O)N[C@@H](Cc3ccc(O)cc3)C(=O)N[C@@H](Cc3cccnc3)C(=O)N[C@@H](Cc3c[nH]c4ccccc34)C(=O)N3CCC[C@H]3C(=O)N[C@@H]([C@@H](C)O)C(=O)N[C@@H](Cc3ccc(O)cc3)C(=O)N[C@@H](CO)C(=O)N[C@@H](CCC(=O)O)C(=O)N[C@@H](Cc3cccnc3)C(=O)N[C@@H](C(C)C)C(=O)N[C@@H](CCC(=O)O)C(=O)N2)C(N)=O)C(N)=O)NC(=O)[C@H](CCC(=O)O)NC1=O [compound 51] (I: {CH2CO}-FSPY[3Pal]WPTYSE[3Pal]VECG[PEG2]K-NH2 / II: {CH2CO}-FSPY[3Pal]WPTYSE[3Pal]VECG[PEG2]K-NH2; linker I:18-II:18 via X2; thioether I:N-I:15, II:N-II:15) | A (The peptide with 50% or more activity when 1 nM of the peptide was added was evaluated as A) | A (The peptide with 50% or more activity when 1 nM of the peptide was added was evaluated as A) | 106 |  |  | 
3 | CC(C)[C@@H]1NC(=O)[C@H](Cc2cccnc2)NC(=O)[C@H](CCC(=O)O)NC(=O)[C@H](CO)NC(=O)[C@H](Cc2ccc(O)cc2)NC(=O)[C@H]([C@@H](C)O)NC(=O)[C@@H]2CCCN2C(=O)[C@H](Cc2c[nH]c3ccccc23)NC(=O)[C@H](Cc2cccnc2)NC(=O)[C@H](Cc2ccc(O)cc2)NC(=O)[C@@H]2CCCN2C(=O)[C@H](CO)NC(=O)[C@H](Cc2ccccc2)NC(=O)CSC[C@@H](C(=O)NCC(=O)N[C@@H](CCCCNC(=O)OCCOCCOCCOCCOCCOCCOCCOCCOCCOCCOCCOCCOC(=O)NCCCC[C@H](NC(=O)CNC(=O)[C@@H]2CSCC(=O)N[C@@H](Cc3ccccc3)C(=O)N[C@@H](CO)C(=O)N3CCC[C@H]3C(=O)N[C@@H](Cc3ccc(O)cc3)C(=O)N[C@@H](Cc3cccnc3)C(=O)N[C@@H](Cc3c[nH]c4ccccc34)C(=O)N3CCC[C@H]3C(=O)N[C@@H]([C@@H](C)O)C(=O)N[C@@H](Cc3ccc(O)cc3)C(=O)N[C@@H](CO)C(=O)N[C@@H](CCC(=O)O)C(=O)N[C@@H](Cc3cccnc3)C(=O)N[C@@H](C(C)C)C(=O)N[C@@H](CCC(=O)O)C(=O)N2)C(N)=O)C(N)=O)NC(=O)[C@H](CCC(=O)O)NC1=O [compound 55] (I: {CH2CO}-FSPY[3Pal]WPTYSE[3Pal]VECGK-NH2 / II: {CH2CO}-FSPY[3Pal]WPTYSE[3Pal]VECGK-NH2; linker I:17-II:17 via X1; thioether I:N-I:15, II:N-II:15) | A (The peptide with 50% or more activity when 1 nM of the peptide was added was evaluated as A) | A (The peptide with 50% or more activity when 1 nM of the peptide was added was evaluated as A) | 104 |  |  | 
4 | CC(C)[C@@H]1NC(=O)[C@H](Cc2cccnc2)NC(=O)[C@H](CCC(=O)O)NC(=O)[C@H](CO)NC(=O)[C@H](Cc2ccc(O)cc2)NC(=O)[C@H]([C@@H](C)O)NC(=O)[C@@H]2CCCN2C(=O)[C@H](Cc2c[nH]c3ccccc23)NC(=O)[C@H](Cc2cccnc2)NC(=O)[C@H](Cc2ccc(O)cc2)NC(=O)[C@@H]2CCCN2C(=O)[C@H](CCC(=O)O)NC(=O)[C@H](Cc2ccccc2)NC(=O)CSC[C@@H](C(=O)NCC(=O)N[C@@H](CCCCNC(=O)OCCOCCOCCOCCOCCOCCOCCOCCOCCOCCOCCOCCOC(=O)NCCCC[C@H](NC(=O)CNC(=O)[C@@H]2CSCC(=O)N[C@@H](Cc3ccccc3)C(=O)N[C@@H](CCC(=O)O)C(=O)N3CCC[C@H]3C(=O)N[C@@H](Cc3ccc(O)cc3)C(=O)N[C@@H](Cc3cccnc3)C(=O)N[C@@H](Cc3c[nH]c4ccccc34)C(=O)N3CCC[C@H]3C(=O)N[C@@H]([C@@H](C)O)C(=O)N[C@@H](Cc3ccc(O)cc3)C(=O)N[C@@H](CO)C(=O)N[C@@H](CCC(=O)O)C(=O)N[C@@H](Cc3cccnc3)C(=O)N[C@@H](C(C)C)C(=O)N[C@@H](CCC(=O)O)C(=O)N2)C(N)=O)C(N)=O)NC(=O)[C@H](CCC(=O)O)NC1=O [compound 57] (I: {CH2CO}-FEPY[3Pal]WPTYSE[3Pal]VECGK-NH2 / II: {CH2CO}-FEPY[3Pal]WPTYSE[3Pal]VECGK-NH2; linker I:17-II:17 via X1; thioether I:N-I:15, II:N-II:15) | A (The peptide with 50% or more activity when 1 nM of the peptide was added was evaluated as A) | A (The peptide with 50% or more activity when 1 nM of the peptide was added was evaluated as A) | 99 |  |  | 
5 | {CH2CO}-FSPY[3Pal]WPTYSE[3Pal]VECG (thioether N-15; also: homodimer via linker No. 7 (K-cPEG13c-K) at Gly16) [peptide complex, dimer structure No. 48 (peptide sequence No. 15 + linker structure No. 7)] |  |  |  | 0.421 | 102 | < 1e-05
6 | {CH2CO}-FEPY[3Pal]WPTYSE[3Pal]VECG (thioether N-15; also: homodimer via linker No. 7 (K-cPEG13c-K) at Gly16) [peptide complex, dimer structure No. 56 (peptide sequence No. 17 + linker structure No. 7)] |  |  |  | 0.358 | 93 | < 1e-05
